Measurements: US20070185072A1, “Nitrogeneous polycyclic derivatives useful as chelators of metal ions and their applications” (priority 2003, published 2007)

System: double transgenic mice over-expressing human APP (V717I) and human PS1 (A242E)
Test: Amyloid plaque loading (thioflavin S staining of brain sections) in double transgenic mice model of Alzheimer's disease
Type: in vivo
Conditions: vs control
Method: Mice over-expressing human APP with the London mutation (V717I) and human PS1 bearing the A242E mutation (APP and PS1 stand for amyloid protein precursor and preseniline 1, respectively) were used.
Three molecules were evaluated on these double transgenic mice (6-month old): 3-Propyl-Clip-Phen (molecule B in the histogram below), Cyclo-bi-Phen (molecule G) and Clioquinol (molecule W) (C stands for control, only DMSO diluted in water).
The molecules were initially diluted in DMSO in the presence of 2.6 equivalents of HCl and then in water and the animals were treated by i.p. injection with the two Phen derivatives at 5 mg/kg or at 10 mg/kg for Clioquinol, three times per week (monday, Wednesday and friday) during 9 consecutive weeks. 9 animals were treated for each drugs (control also included 9 animals).
This method is used to quantify the “old” plaques.

[1] = 5 mg/kg i.p. three times per week for 9 weeks

`c1cnc2c(c1)ccc1cc(OCCCOc3cnc4c(ccc5cccnc54)c3)cnc12` [3-Propyl-Clip-Phen] showed a plaque loading increase [1] of 16%.

For `Oc1c(I)cc(Cl)c2cccnc12` [Clioquinol, 5-chloro-7-iodo-8-hydroxyquinoline], the plaque loading reduction (10 mg/kg i.p. three times per week for 9 weeks) was 28%.

`c1nc2c3ccc4cc(cnc42)OCCCOc2cnc4c(ccc5cc(cnc54)OCCCOc1c3)c2` [Cyclo-bi-Phen] was tested, and the plaque loading reduction [1] was 38%.
